# Results: patent US20240033211A1, “EXTRACT OF AT LEAST ONE PLANT OF THE CROCUS SATIVUS SPECIES COMPRISING A HIGH CONTENT OF CROCINS AND A LOW CONTENT OF SAFRANAL, AND COSMETIC USE THEREOF AS ANTIOXIDANT” (L'OREAL, priority 2020, published 2024)
# Assay: Study of squalene peroxidation (UVA, hematoporphyrin photosensitizer, singlet oxygen)
# Assay type: biochemical
# Excerpt: Protocol: The principle of the test is to determine, via the assaying of squalene (Sq) and its photo-oxidation product, the efficacy of an active agent against this form of photo-peroxidation.
# The test makes use of squalene in the presence of a photosensitizer, hematoporphyrin. Under the action of UVA rays, singlet oxygen (^1O2) is generated. This highly reactive form of oxygen degrades the squalene by oxidation of the double bonds to form squalene hydroperoxides (Sq-OOH).
# In the context of the test, the exposure of squalene combined with hematoporphyrin is carried out in the presence of various concentrations of extract obtained according to Example 2 (according to the invention) and according to Example 3 (outside the invention). The reaction medium is ethanol.
# Equipment and Reagents: • Squalene [Sigma S-3626] • Hematoporphyrine Free Base (approx. 70%) [Sigma—ref H-7253] • HPLC or UPLC system in reverse phase mode, detection in UV mode (205 nm)
# Procedure: • ethanol solution containing 500 μg/ml of Sq and 2 μg/ml hematoporphyrin+extract to be tested • expose to UVA rays for the dose of 5 J/cm^2 • measure the amount of Sq and SqOOH before and after exposure • plot % inhibition as a function of the amount of extract tested.
# *IC25: concentration of raw material needed to inhibit squalene peroxidation by 25%. […]
substance,measurement,setting,value
vitamin E,IC50 (squalene peroxidation),"comparison value for vitamin E, printed as % (=250 ppm)",~0.025%
same,IC50 (concentration of raw material needed to inhibit squalene peroxidation by 50%),"solution in ethanol, UVA 5 J/cm^2",~250 ppm
